# Experimental data published in patent US11753410B2, “Hormone receptor modulators for treating metabolic mutagenic and fibrotic conditions and disorders” (priority 2017, dated 2023).
# Columns and labels:
# [1] = target: T1, ligand binding domain of human FXR (Homo sapiens, UniProt Q96RI1); assay: biochemical
# T1 construct: purchased Thermofisher (LanthaScreen) PV4833
# T1 sequence (Q96RI1 262-486 limits assumed): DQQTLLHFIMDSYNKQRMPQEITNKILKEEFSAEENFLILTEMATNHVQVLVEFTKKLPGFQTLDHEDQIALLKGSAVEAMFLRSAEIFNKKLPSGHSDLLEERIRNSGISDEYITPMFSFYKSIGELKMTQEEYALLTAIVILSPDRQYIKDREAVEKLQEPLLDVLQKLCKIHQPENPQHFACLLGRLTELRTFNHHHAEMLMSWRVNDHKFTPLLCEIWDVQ
# [2] = target: T2, human Farnesoid X receptor ligand-binding domain/Gal4 DNA binding domain chimera (Homo sapiens, UniProt Q96RI1); assay: Cell-based assay of FXR activation (FXR-UAS-bla HEK 293T beta-lactamase reporter)
# T2 construct: host or cells: FXR-UAS-bla HEK 293T (CellSensor UAS-bla HEK 293T)
# T2 sequence (Q96RI1 262-486 limits assumed): T1 sequence (Q96RI1 262-486 limits assumed)
smiles,measurement,setting,value
"O=C(O)c1ccc(N2C[C@@H]3C[C@H]2C[C@H]3OCc2c(-c3c(Cl)cccc3Cl)nnn2C2CC2)cc1 [Compound I-70, 4-[(1S,4S,5R)-5-{[1-cyclopropyl-4-(2,6-dichlorophenyl)-1H-1,2,3-triazol-5-yl]methoxy}-2-azabicyclo[2.2.1]heptan-2-yl]benzoic acid]",Emax,"[1]; extent of activation relative to GW4064, read-out: Ligand Binding % Efficacy",155%
same,EC50,"[1]; −log EC50, concentration required to produce 50% activation, FRET 520 nm/495 nm, 1 hour at room temperature, read-out: Ligand Binding pEC50 (converted)",63.1 nM
same,EC50,[2],39.8 nM
same,Emax,"[2]; HEK-293T, read-out: Cellular % Efficacy",106%
